Reference: ChEMBL document CHEMBL4351016 (Eur J Med Chem, 2019)
Activity calls are given as the source filed them. The rule behind the calls is not given here.

How the values were obtained:
VCaP [1] = test: Antiproliferative activity against AR-positive human VCaP cells assessed as cell viability at 40 uM after 72 hrs by resazurin dye based fluorescence assay; assay type: functional; details: read-out: Activity
LNCaP C4-2 [2] = test: Antiproliferative activity against AR-positive human C4-2 cells assessed as growth inhibition after 72 hrs by resazurin dye based fluorescence assay; assay type: functional; details: LNCaP C4-2, 72 h
LNCaP C4-2 [3] = test: Antiproliferative activity against AR-positive human C4-2 cells assessed as cell viability at 40 uM after 72 hrs by resazurin dye based fluorescence assay; assay type: functional; details: LNCaP C4-2, 72 h, read-out: Activity
CWR22R [4] = test: Antiproliferative activity against AR-positive human 22Rv1 cells harboring ARE14 construct assessed as growth inhibition after 72 hrs by resazurin dye based fluorescence assay; assay type: functional; details: 22Rv1, 72 h
PC-3 = test: Antiproliferative activity against AR-negative human PC3 cells assessed as growth inhibition after 72 hrs by resazurin dye based fluorescence assay; assay type: functional; details: PC-3, 72 h
VCaP [5] = test: Antiproliferative activity against AR-positive human VCaP cells assessed as growth inhibition after 72 hrs by resazurin dye based fluorescence assay; assay type: functional
CWR22R [6] = test: Antiproliferative activity against AR-positive human 22Rv1 cells harboring ARE14 construct assessed as growth inhibition after 24 hrs by resazurin dye based fluorescence assay; assay type: functional; details: 22Rv1, 24 h
[7] = target: T1, Androgen receptor (Homo sapiens) (UniProt P10275); test: Inhibition of AR transcriptional activity in AR-positive human 22Rv1 cells harboring ARE14 construct assessed as downregulation of NKX3.1 protein expression at 5 uM after 24 hrs by immunoblot analysis
T1 sequence (whole entry): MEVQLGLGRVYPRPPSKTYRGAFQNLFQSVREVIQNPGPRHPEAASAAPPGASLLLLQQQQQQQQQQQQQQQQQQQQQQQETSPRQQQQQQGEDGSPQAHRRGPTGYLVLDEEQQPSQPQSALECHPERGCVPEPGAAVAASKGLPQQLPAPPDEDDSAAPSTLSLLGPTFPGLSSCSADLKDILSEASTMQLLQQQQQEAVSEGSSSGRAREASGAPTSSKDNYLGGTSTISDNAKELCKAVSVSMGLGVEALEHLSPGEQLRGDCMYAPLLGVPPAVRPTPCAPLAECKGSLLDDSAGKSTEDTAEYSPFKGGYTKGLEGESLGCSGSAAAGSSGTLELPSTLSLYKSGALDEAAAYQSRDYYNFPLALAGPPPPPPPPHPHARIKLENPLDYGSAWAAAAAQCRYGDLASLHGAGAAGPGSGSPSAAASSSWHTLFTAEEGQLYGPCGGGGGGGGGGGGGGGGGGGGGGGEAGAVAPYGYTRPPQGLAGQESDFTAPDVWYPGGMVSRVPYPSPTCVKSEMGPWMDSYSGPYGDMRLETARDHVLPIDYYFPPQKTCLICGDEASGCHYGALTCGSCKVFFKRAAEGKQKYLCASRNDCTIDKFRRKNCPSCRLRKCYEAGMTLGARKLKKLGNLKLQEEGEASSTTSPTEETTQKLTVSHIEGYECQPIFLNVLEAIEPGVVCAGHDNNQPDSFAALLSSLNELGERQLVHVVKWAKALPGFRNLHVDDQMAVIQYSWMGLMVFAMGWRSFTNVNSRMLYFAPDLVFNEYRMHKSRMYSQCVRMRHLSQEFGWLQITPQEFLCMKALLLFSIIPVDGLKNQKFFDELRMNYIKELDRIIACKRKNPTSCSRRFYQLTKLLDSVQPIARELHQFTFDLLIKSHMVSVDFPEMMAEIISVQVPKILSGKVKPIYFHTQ

CWR22R [8] = test: Effect on AR-V7 protein expression in AR-positive human 22Rv1 cells harboring ARE14 construct at 5 uM after 24 hrs by immunoblot analysis; assay type: functional, cell-based
[9] = target: T1, Androgen receptor (Homo sapiens); test: Inhibition of AR transcriptional activity in AR-positive human 22Rv1 cells harboring ARE14 construct assessed as decrease in PSA protein expression at 5 uM after 24 hrs by immunoblot analysis
BJ = test: Antiproliferative activity against human BJ cells assessed as growth inhibition after 24 hrs by resazurin dye based fluorescence assay; assay type: functional

Row | Compound | GI50 (LNCaP C4-2 [2]) | GI50 (PC-3) | GI50 (VCaP [5]) | NKX3.1 protein downregulation (active/not active) [7] | PSA protein decrease (active/not active) [9] | viability at 40 µM (VCaP [1]) | viability at 40 µM (LNCaP C4-2 [3]) | GI50 (CWR22R [4]) | GI50 (CWR22R [6]) | Activity (CWR22R [8]) | GI50 (BJ)
1 | C[C@]12CC[C@H](O)CC1=CC[C@@H]1[C@@H]2CC[C@]2(C)C(n3cnc4ccccc43)=CC[C@@H]12 [GALETERONE] | > 40 µM | 37.7 µM | > 40 µM | – | – | 57.2% | 74.3% | 37.8 µM | – | – | –
2 | CC(=O)O[C@H]1CC[C@@]2(C)C(=CC[C@@H]3[C@@H]2CC[C@@]2(C)[C@H]3C[C@@H]3C(=O)[C@@]2(C)Nc2nc4cc(C)c(C)cc4n23)C1 | > 50 µM | > 50 µM | > 50 µM | inactive | inactive | – | – | 7.4 µM | > 50 µM | inactive | > 50 µM
3 | CC(=O)O[C@H]1CC[C@@]2(C)C(=CC[C@@H]3[C@@H]2CC[C@]2(C)c4c(C)nc5nc6cc(C)c(C)cc6n5c4C[C@@H]32)C1 | 36.5 µM | > 50 µM | > 50 µM | inactive | inactive | – | – | 40 µM | > 50 µM | inactive | > 50 µM
4 | CC(=O)O[C@H]1CC[C@@]2(C)C(=CC[C@@H]3[C@@H]2CC[C@@]2(C)[C@H]3C[C@@H]3C(=O)[C@@]2(C)Nc2nc4ccc(Cl)cc4n23)C1 | > 50 µM | > 50 µM | – | – | – | – | – | > 50 µM | – | – | –
5 | CC(=O)O[C@H]1CC[C@@]2(C)C(=CC[C@H]3[C@@H]4C[C@@H](Nc5nc6ccccc6s5)[C@H](C(C)=O)[C@@]4(C)CC[C@@H]32)C1 | 34.1 µM | > 50 µM | > 50 µM | inactive | inactive | – | – | 13.2 µM | > 50 µM | inactive | > 50 µM
6 | CC(=O)O[C@H]1CC[C@@]2(C)C(=CC[C@@H]3[C@@H]2CC[C@]2(C)c4c(C)nc5nccn5c4C[C@@H]32)C1 | > 50 µM | > 50 µM | > 50 µM | inactive | inactive | – | – | 26.3 µM | > 50 µM | inactive | > 50 µM
7 | C[C@]12CC[C@H](O)CC1=CC[C@@H]1[C@@H]2CC[C@]2(C)/C(=N/n3cnc4ccccc43)CC[C@@H]12 | > 50 µM | 11.5 µM | > 50 µM | inactive | inactive | – | – | > 50 µM | > 50 µM | inactive | > 50 µM
8 | CC(=O)O[C@H]1CC[C@@]2(C)C(=CC[C@@H]3[C@@H]2CC[C@]2(C)c4c(C)nc5c(c4C[C@@H]32)c2ccccc2n5C)C1 | > 50 µM | > 50 µM | > 50 µM | inactive | inactive | – | – | > 50 µM | > 50 µM | inactive | > 50 µM
9 | CC(=O)O[C@H]1CC[C@@]2(C)C(=CC[C@@H]3[C@@H]2CC[C@]2(C)c4c(C)nc5nc6cc(Cl)ccc6n5c4C[C@@H]32)C1 | > 50 µM | > 50 µM | > 50 µM | inactive | inactive | – | – | > 50 µM | > 50 µM | inactive | > 50 µM
10 | CC(=O)O[C@H]1CC[C@@]2(C)C(=CC[C@@H]3[C@@H]2CC[C@@]2(C)[C@H]3C[C@@H]3C(=O)[C@@]2(C)Nc2nc4cc(Cl)ccc4n23)C1 | > 50 µM | > 50 µM | – | – | – | – | – | > 50 µM | – | – | –

Now those with a lower GI50 (LNCaP C4-2 [2]), led by results:

Row | GI50 (LNCaP C4-2 [2]) | GI50 (PC-3) | GI50 (VCaP [5]) | NKX3.1 protein downregulation (active/not active) [7] | PSA protein decrease (active/not active) [9] | Compound | viability at 40 µM (VCaP [1]) | viability at 40 µM (LNCaP C4-2 [3]) | GI50 (CWR22R [4]) | GI50 (CWR22R [6]) | Activity (CWR22R [8]) | GI50 (BJ)
11 | 24.4 µM | > 50 µM | > 50 µM | inactive | inactive | CC(=O)O[C@H]1CC[C@@]2(C)C(=CC[C@@H]3[C@@H]2CC[C@]2(C)c4c(C)nc5nc6ccc(Cl)cc6n5c4C[C@@H]32)C1 | – | – | 29.9 µM | > 50 µM | inactive | 50 µM
12 | 12.7 µM | 7.8 µM | 20.7 µM | Active | – | Cc1nc(N2CCc3ccccc3C2)nc2c1[C@@]1(C)CC[C@H]3[C@@H](CC=C4C[C@@H](O)CC[C@@]43C)[C@@H]1C2 | – | – | 12.4 µM | > 50 µM | inactive | 22.5 µM
13 | 18 µM | > 50 µM | > 50 µM | inactive | inactive | CC(=O)O[C@H]1CC[C@@]2(C)C(=CC[C@@H]3[C@@H]2CC[C@@]2(C)[C@H]3C[C@@H]3C(=O)[C@@]2(C)Nc2nc4ccccc4n23)C1 | – | – | 5.4 µM | > 50 µM | inactive | > 50 µM
14 | 1.1 µM | > 50 µM | > 50 µM | Active | Active | COc1ccc2c(C)c3c(nc2n1)C[C@H]1[C@@H]2CC=C4C[C@@H](O)CC[C@]4(C)[C@H]2CC[C@]31C | – | – | 4.3 µM | > 50 µM | inactive | > 50 µM
15 | 22.5 µM | > 50 µM | > 50 µM | inactive | inactive | CC(=O)O[C@H]1CC[C@@]2(C)C(=CC[C@@H]3[C@@H]2CC[C@]2(C)c4c(C)nc5nc6ccccc6n5c4C[C@@H]32)C1 | – | – | 7.2 µM | > 50 µM | inactive | 44.9 µM
16 | 11.9 µM | 29.5 µM | 20.3 µM | inactive | inactive | CC(=O)O[C@H]1CC[C@@]2(C)C(=CC[C@H]3[C@@H]4C[C@@H](Nc5nc6ccccc6[nH]5)[C@@H](C(C)=O)[C@@]4(C)CC[C@@H]32)C1 | – | – | 6.2 µM | > 50 µM | inactive | 48.3 µM
